From article PMC3031908 (Bioorganic & medicinal chemistry, 2008)

Legend:
[1] = molecular target: sodium channel site 2 binding site (neuronal voltage-gated sodium channel); conditions: −pIC50 = −log IC50 (IC50 in μM); training set; ref literature reference; cited from earlier work
[2] = molecular target: sodium channel site 2 binding site (neuronal voltage-gated sodium channel); assay: [3H]-BTX-B binding; set-up: species or system rat; conditions: for IC50: read-out: observed (actual) IC50, [3H]-BTX; for −pIC50 Obsd: test set, −log IC50 (IC50 in μM)
[3] = molecular target: human Nav1.2 (Homo sapiens, UniProt Q99250); assay type: cell-based; conditions: HEK cells
human Nav1.2, sequence (Q99250 whole entry): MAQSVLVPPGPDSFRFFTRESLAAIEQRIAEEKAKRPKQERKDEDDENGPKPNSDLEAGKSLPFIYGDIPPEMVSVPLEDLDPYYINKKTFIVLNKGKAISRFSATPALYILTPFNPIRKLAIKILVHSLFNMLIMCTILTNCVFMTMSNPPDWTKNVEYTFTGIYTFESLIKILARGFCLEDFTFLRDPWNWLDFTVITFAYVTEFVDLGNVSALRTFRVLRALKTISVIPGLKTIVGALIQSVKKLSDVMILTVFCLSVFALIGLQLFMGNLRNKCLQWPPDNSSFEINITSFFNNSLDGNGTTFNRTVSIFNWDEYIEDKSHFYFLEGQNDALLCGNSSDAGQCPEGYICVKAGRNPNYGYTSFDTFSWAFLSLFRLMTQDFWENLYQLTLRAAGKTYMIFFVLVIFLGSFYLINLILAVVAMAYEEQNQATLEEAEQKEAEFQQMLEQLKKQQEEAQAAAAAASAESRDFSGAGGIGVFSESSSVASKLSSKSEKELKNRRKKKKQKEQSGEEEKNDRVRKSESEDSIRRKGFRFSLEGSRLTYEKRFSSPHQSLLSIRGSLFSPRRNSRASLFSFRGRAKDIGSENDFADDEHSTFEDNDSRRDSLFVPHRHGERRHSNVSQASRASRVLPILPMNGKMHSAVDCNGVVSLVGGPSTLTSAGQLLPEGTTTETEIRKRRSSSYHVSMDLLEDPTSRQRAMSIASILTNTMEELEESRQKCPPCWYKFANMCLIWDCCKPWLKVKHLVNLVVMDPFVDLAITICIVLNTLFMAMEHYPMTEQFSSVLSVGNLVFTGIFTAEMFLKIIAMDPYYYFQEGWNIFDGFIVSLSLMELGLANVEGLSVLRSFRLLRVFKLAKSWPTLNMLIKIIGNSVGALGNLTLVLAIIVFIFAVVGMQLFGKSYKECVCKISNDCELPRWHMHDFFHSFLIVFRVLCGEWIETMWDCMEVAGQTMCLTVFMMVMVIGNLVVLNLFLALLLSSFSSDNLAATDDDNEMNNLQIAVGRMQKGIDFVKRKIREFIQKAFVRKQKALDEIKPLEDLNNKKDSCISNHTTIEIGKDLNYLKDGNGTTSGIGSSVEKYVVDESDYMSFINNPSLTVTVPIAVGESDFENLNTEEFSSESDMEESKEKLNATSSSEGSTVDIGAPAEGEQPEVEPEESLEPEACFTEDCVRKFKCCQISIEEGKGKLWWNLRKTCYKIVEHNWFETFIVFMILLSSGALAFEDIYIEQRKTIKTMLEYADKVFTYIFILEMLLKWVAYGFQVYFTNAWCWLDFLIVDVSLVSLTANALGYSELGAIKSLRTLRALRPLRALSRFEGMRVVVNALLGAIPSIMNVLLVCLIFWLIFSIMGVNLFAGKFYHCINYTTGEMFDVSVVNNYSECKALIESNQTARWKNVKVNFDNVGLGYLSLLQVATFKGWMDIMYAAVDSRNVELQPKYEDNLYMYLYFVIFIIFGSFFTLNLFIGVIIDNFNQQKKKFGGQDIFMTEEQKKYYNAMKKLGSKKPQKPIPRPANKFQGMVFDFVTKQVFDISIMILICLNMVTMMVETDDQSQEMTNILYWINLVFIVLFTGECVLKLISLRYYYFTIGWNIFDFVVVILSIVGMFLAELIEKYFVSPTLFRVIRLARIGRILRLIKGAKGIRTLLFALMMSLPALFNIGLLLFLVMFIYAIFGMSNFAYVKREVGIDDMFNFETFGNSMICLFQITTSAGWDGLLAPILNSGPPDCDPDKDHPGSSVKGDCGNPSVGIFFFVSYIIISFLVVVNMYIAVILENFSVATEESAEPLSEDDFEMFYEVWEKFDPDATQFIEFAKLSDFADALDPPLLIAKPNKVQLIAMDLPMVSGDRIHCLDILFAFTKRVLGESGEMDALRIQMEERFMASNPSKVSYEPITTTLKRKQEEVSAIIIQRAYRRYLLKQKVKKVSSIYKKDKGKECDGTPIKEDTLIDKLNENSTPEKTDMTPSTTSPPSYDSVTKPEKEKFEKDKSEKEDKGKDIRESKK

Row | SMILES | Final model, −pIC50 Obsd [1] | further results
1 | CC12C(=O)NC(=O)N1CCc1ccccc12 (stereo not drawn) [Compound 13] | −2.40 | 
2 | O=C1C(c2ccccc2)N2CCCCN1C2=O (stereo not drawn) [Compound 18] | −2.85 | 
3 | CCCOc1cc(N)ccc1C(=O)OCCN(CC)CC.Cl [Compound 34] | −1.38 | 
4 | O=C1NC(=O)C(c2ccccc2)(c2ccccc2)N1 [Compound 36, phenytoin] | −1.60 | 
5 | CCN1C(=O)NC(=O)C1(C)c1ccccc1 (stereo not drawn) [Compound 8] | −2.86 | 
6 | O=C1NC(=O)C2(CCCCc3ccccc32)N1 (stereo not drawn) [Compound 11] | −2.40 | 
7 | CC(CNC1CCCCC1)OC(=O)c1ccccc1 (stereo not drawn) [Compound 27] | −0.85 | 
8 | CCCCCCCC(O)(C(N)=O)c1ccccc1 (stereo not drawn) [Compound 20] | −0.95 | 
9 | CCCCCCCCC1(c2ccccc2)NC(=O)NC1=O (stereo not drawn) [Compound 7] | −0.70 | 
10 | CCOc1ccc(C(=O)OCCN(CC)CC)cc1 [Compound 29] | −1.38 | 
11 | CCCCC1(c2cccc(C)c2)NC(=O)NC1=O (stereo not drawn) [Compound 15] | −1.76 | 
12 | CC1CCCCN1CCCOC(=O)c1ccccc1 (stereo not drawn) [Compound 30, piperocaine] | −1.11 | 
13 | O=C1NC(=O)C2(CCCc3ccccc32)N1 (stereo not drawn) [Compound 10] | −2.93 | 
14 | CCCCCCCC1(c2cc(C)c(NC(=O)CN(CC)CC)c(C)c2)NC(=O)NC1=O (stereo not drawn) [Compound 44, 2-Diethylamino-N-[4-(4-heptyl-2,5-dioxo-imidazolidin-4-yl)-2,6-dimethyl-phenyl]-acetamide] |  | IC50 [2]: 13.5 µM; −pIC50 Obsd [2]: -1.13
15 | CCCCC1(c2ccccc2C)NC(=O)NC1=O (stereo not drawn) [Compound 14] | −2.35 | 
16 | CCCNC(C)C(=O)Nc1ccccc1C (stereo not drawn) [Compound 31] | −1.73 | 
17 | CCN(CC)CC(=O)Nc1c(C)cc(C2(c3ccccc3)NC(=O)NC2=O)cc1C (stereo not drawn) [Compound 42, 2-Diethylamino-N-[4-(2,5-dioxo-4-phenyl-imidazolidin-4-yl)-2,6-dimethyl-phenyl]-acetamide] |  | IC50 [2]: ~39.8 µM; −pIC50 Obsd [2]: -1.60

Row | SMILES | Final model, −pIC50 Obsd [1] | further results
18 | CCCCCCCC(O)(C(N)=O)c1cc(C)c(NC(=O)CN(CC)CC)c(C)c1 (stereo not drawn) [Compound 37, 2-[4-(2-Diethylamino-acetylamino)-3,5-dimethylphenyl]-2-hydroxy-nonanoic acid amide] |  | increase in inhibition on heptyl for phenyl substitution at R1 ([2]; 37 vs 39 (83% vs 16%) at 40 μM): greater than 5 fold; IC50 [2]: 6 µM; −pIC50 Obsd [2]: -0.78; reversibility of block on washout [3]: partially reversible upon washout
19 | CCOC(=O)c1ccc(N)cc1 [Compound 21, benzocaine] | −2.96 | 
20 | CCCC1(c2ccccc2)NC(=O)NC1=O (stereo not drawn) [Compound 1] | −2.21 | 
21 | CCN(CC)CC(=O)Nc1ccc(C2(c3ccccc3)NC(=O)NC2=O)cc1 (stereo not drawn) [Compound 41, 2-Diethylamino-N-[4-(2,5-dioxo-4-phenyl-imidazolidin-4-yl)-phenyl]-acetamide] |  | IC50 [2]: ~39.8 µM; −pIC50 Obsd [2]: -1.60
22 | COC(=O)[C@H]1[C@@H](OC(=O)c2ccccc2)C[C@@H]2CC[C@H]1N2C [Compound 24] | −1.69 | 
23 | CCCCC1(c2ccccc2)NC(=O)NC1=O (stereo not drawn) [Compound 2] | −2.01 | 
24 | O=C1C(c2ccccc2)N2CCCCCN1C2=O (stereo not drawn) [Compound 19] | −2.63 | 
25 | CCCOc1ccc(C(=O)OCCN(CC)CC)cc1N [Compound 33] | −0.28 | 
26 | CCCCCC1(c2ccccc2)NC(=O)N(C)C1=O (stereo not drawn) [Compound 4] | −1.59 | 
27 | CCCCC1(c2ccc(C)cc2)NC(=O)NC1=O (stereo not drawn) [Compound 16] | −1.98 | 
28 | CCN(CC)CCOC(=O)c1ccc(N)cc1 [Compound 32] | −2.04 | 
29 | CCCCCCC1(c2ccccc2)NC(=O)NC1=O (stereo not drawn) [Compound 5] | −1.11 | 
30 | CCCCCCCC1(c2ccccc2)NC(=O)NC1=O (stereo not drawn) [Compound 6] | −0.70 | 
31 | O=C1NC(=O)C(c2ccccc2)(C2CCCCC2)N1 (stereo not drawn) [Compound 17] | −1.76 | 
32 | O=C1NC(=O)C2(CCCCCc3ccccc32)N1 (stereo not drawn) [Compound 12] | −2.40 | 
33 | O=C1NC(=O)C2(CCc3ccccc32)N1 (stereo not drawn) [Compound 9] | −3.32 | 
